Patent US10280150B2 (FORMA TM2, Inc., priority 2014, dated 2019)

What follows are compounds tested against IDH1-R132H recombinant protein (Homo sapiens (Human), UniProt O75874, R132H) (assay: IDH1-R132H enzymatic assay (inhibition of NADPH consumption, diaphorase/resazurin readout)). Details: read-out: Enzyme IDH1 R132H IC50 (Range).
Sequence of IDH1-R132H recombinant protein (O75874 whole entry R132H): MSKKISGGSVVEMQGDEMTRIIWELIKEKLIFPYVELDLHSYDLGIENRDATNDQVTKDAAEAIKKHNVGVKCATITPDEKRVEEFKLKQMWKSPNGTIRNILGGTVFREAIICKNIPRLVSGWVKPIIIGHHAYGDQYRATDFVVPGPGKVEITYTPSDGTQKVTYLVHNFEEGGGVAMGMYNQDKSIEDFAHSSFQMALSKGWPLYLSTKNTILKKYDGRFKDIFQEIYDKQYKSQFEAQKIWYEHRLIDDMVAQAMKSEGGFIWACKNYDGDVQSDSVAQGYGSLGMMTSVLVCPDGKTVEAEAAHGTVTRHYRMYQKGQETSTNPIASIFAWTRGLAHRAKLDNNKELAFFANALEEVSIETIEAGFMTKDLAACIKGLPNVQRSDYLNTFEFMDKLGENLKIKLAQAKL
Assay type: biochemical
Description: Assays were performed in a 384-well black plate. An aliquot of 250 nL of compound was incubated with 10 μL of 30 nM IDH1-R132H or 10 nM IDH1-R132C recombinant protein in assay buffer (50 mM Tris pH=7.5, 150 mM NaCl, 5 mM MgCl2, 0.1% (w/v) Bovine Serum Albumin, and 0.01% Triton X-100) in each well at 25° C. for 15 minutes. After the plate was centrifuged briefly, an aliquot of 10 μL of 2 mM α-ketoglutarate and 20 μM NADPH solution prepared in assay buffer was then added to each well and the reaction was maintained at 25° C. for 45 minutes. An aliquot of 10 μL of diaphorase solution (0.15 U/mL diaphorase and 30 µM Resazurin in assay buffer) was added to each well. The plate was maintained at 25° C. for 15 minutes and then read on a plate reader with excitation and emission wavelengths at 535 nm and 590 nm, respectively. The IC50 of a given compound was calculated by fitting the dose response curve of inhibition of NADPH consumption at a given concentration with the four parameter logistic equation.
With C[C@H](Nc1nccc(N(CC(C)(C)C)S(C)(=O)=O)n1)c1cc2cc(Cl)ccc2[nH]c1=O [Compound I-1] the IC50 was under 100 nM. For C[C@H](Nc1nccc(CN(C2CC2)S(C)(=O)=O)n1)c1cc2cc(Cl)ccc2[nH]c1=O [Compound I-6, (S)—N-((2-((1-(6-Chloro-2-oxo-1,2-dihydroquinolin-3-yl)ethyl)amino)pyrimidin-4-yl)methyl)-N-cyclopropylmethanesulfonamide], the IC50 was 100 to 1000 nM. In the case of C[C@H](Nc1nccc(NC2CC2)n1)c1cc2cc(Cl)ccc2[nH]c1=O [Compound I-9, (S)-6-Chloro-3-(1-((4-(cyclopropylamino)pyrimidin-2-yl)amino)ethyl)quinolin-2(1H)-one], the IC50 is reported as 1000 to 10000 nM. With C[C@H](Nc1nccc(N(CC(F)(F)F)S(C)(=O)=O)n1)c1cc2cc(Cl)ccc2[nH]c1=O [Compound I-13] the IC50 was under 100 nM. C[C@H](Nc1nccc(NS(C)(=O)=O)n1)c1cc2cc(Cl)ccc2[nH]c1=O [Compound I-17] was tested, and the IC50 was over 10000 nM. CC(C)CS(=O)(=O)Nc1ccnc(N[C@@H](C)c2cc3cc(Cl)ccc3[nH]c2=O)n1 [Compound I-18] gave an IC50 of 1000 to 10000 nM. Work on C[C@H](Nc1nccc(N(CC(C)(C)O)S(C)(=O)=O)n1)c1cc2cc(Cl)ccc2[nH]c1=O [Compound I-19] yielded an IC50 of 1000 to 10000 nM. In the case of CC(C)CC(=O)N(c1ccnc(N[C@@H](C)c2cc3cc(Cl)ccc3[nH]c2=O)n1)C1CC1 [Compound I-24, (S)—N-(2-((1-(6-Chloro-2-oxo-1,2-dihydroquinolin-3-yl)ethyl)amino)pyrimidin-4-yl)-N-cyclopropyl-3-methylbutanamide], the IC50 is reported as 100 to 1000 nM. Compound CC(=O)N(CC(C)(C)C)c1ccnc(N[C@@H](C)c2cc3cc(Cl)ccc3[nH]c2=O)n1 [Compound I-26, (S)—N-(2-((1-(6-Chloro-2-oxo-1,2-dihydroquinolin-3-yl)ethyl)amino)pyrmidin-4-yl)-N-neopentylacetamide] has an IC50 of under 100 nM. Compound C[C@H](Nc1nccc(NC(=O)CC2CCOCC2)n1)c1cc2cc(Cl)ccc2[nH]c1=O [Compound I-27, (S)—N-(2-((1-(6-chloro-2-oxo-1,2-dihydroquinolin-3-yl)ethyl)amino)pyrimidin-4-yl)-2-(tetrahydro-2H-pyran-4-yl)acetamide] has an IC50 of 100 to 1000 nM. In the case of CC(=O)N(c1ccnc(N[C@@H](C)c2cc3cc(Cl)ccc3[nH]c2=O)n1)C1CC1 [Compound I-28, (S)—N-(2-((1-(6-chloro-2-oxo-1,2-dihydroquinolin-3-yl)ethyl)amino)pyrimidin-4-yl)-N-cyclopropylacetamide], the IC50 is reported as 100 to 1000 nM. With CC(=O)N(c1ccnc(N[C@@H](C)c2cc3cc(Cl)ccc3[nH]c2=O)n1)C(C)(C)C [Compound I-30] the IC50 was 1000 to 10000 nM. CC(C)CC(=O)Nc1ccnc(N[C@@H](C)c2cc3cc(Cl)ccc3[nH]c2=O)n1 [Compound I-31] showed an IC50 of 100 to 1000 nM. COCC(=O)Nc1ccnc(N[C@@H](C)c2cc3cc(Cl)ccc3[nH]c2=O)n1 [Compound I-32, (S)—N-(2-((1-(6-Chloro-2-oxo-1,2-dihydroquinolin-3-yl)ethyl)amino)pyrimidin-4-yl)-2-methoxyacetamide] gave an IC50 of under 100 nM. CC(=O)N(CC(C)C)c1ccnc(NC(C)c2cc3cc(Cl)ccc3[nH]c2=O)n1 (stereo not drawn) [Compound I-34] gave an IC50 of 100 to 1000 nM. CC(C)[C@H]1COC(=O)N1c1ccnc(N[C@H](C)c2cc3cc(Cl)ccc3[nH]c2=O)n1 [Compound I-43, (S)-3-(2-(((R)-1-(6-Chloro-2-oxo-1,2-dihydroquinolin-3-yl)ethyl)amino)pyrimidin-4-yl)-4-isopropyloxazolidin-2-one] was tested, and the IC50 was over 10000 nM. CC(Nc1nccc(N2CCOC2=O)n1)c1cc2ccccc2[nH]c1=O (stereo not drawn) [Compound I-49] was tested, and the IC50 was 100 to 1000 nM. O=C1CCCN1c1ccnc(NCc2cc3cc(Cl)ccc3[nH]c2=O)n1 [Compound I-50] showed an IC50 of 100 to 1000 nM. Work on C[C@H](Nc1nccc(-n2cccc2)n1)c1cc2cc(Cl)ccc2[nH]c1=O [Compound I-52] yielded an IC50 of 100 to 1000 nM. Compound Cc1ncn(-c2ccnc(N[C@@H](C)c3cc4cc(Cl)ccc4[nH]c3=O)n2)c1C [Compound I-53, (S)-6-Chloro-3-(1-((4-(4,5-dimethyl-1H-imidazol-1-yl)pyrimidin-2-yl)amino)ethyl)quinolin-2(1H)-one] has an IC50 of under 100 nM. With Cc1nccn1-c1ccnc(N[C@@H](C)c2cc3cc(Cl)ccc3[nH]c2=O)n1 [Compound I-56] the IC50 was 1000 to 10000 nM. Cc1cn(-c2ccnc(N[C@@H](C)c3cc4cc(Cl)ccc4[nH]c3=O)n2)cn1 [Compound I-57] was tested, and the IC50 was 100 to 1000 nM. Compound C[C@H](Nc1nccc(-c2cncnc2)n1)c1cc2cc(Cl)ccc2[nH]c1=O [Compound I-62, (S)-3-(1-(4,5′-bipyrimidin-2-ylamino)ethyl)-6-chloroquinolin-2(1H)-one] has an IC50 of 1000 to 10000 nM. C[C@H](Nc1nccc(-c2ccnn2C)n1)c1cc2cc(Cl)ccc2[nH]c1=O [Compound I-67, (S)-6-Chloro-3-(1-((4-(1-methyl-1H-pyrazol-5-yl)pyrimidin-2-yl)amino)ethyl)quinolin-2(1H)-one] was tested, and the IC50 was 100 to 1000 nM. Cc1noc(C)c1-c1ccnc(N[C@@H](C)c2cc3cc(Cl)ccc3[nH]c2=O)n1 [Compound I-69] was tested, and the IC50 was 1000 to 10000 nM. C[C@H](Nc1nccc(-c2cnoc2)n1)c1cc2cc(Cl)ccc2[nH]c1=O [Compound I-70] was tested, and the IC50 was 1000 to 10000 nM. For CC(=O)c1ccccc1-c1ccnc(N[C@@H](C)c2cc3cc(Cl)ccc3[nH]c2=O)n1 [Compound I-72], the IC50 was 1000 to 10000 nM. With CC(=O)Nc1ccccc1-c1ccnc(N[C@@H](C)c2cc3cc(Cl)ccc3[nH]c2=O)n1 [Compound I-73] the IC50 was 1000 to 10000 nM. For Cc1cc(-c2ccnc(N[C@@H](C)c3cc4cc(Cl)ccc4[nH]c3=O)n2)n(C)n1 [Compound I-76], the IC50 was 1000 to 10000 nM. With Cc1nn(C)cc1-c1ccnc(N[C@@H](C)c2cc3cc(Cl)ccc3[nH]c2=O)n1 [Compound I-77] the IC50 was 1000 to 10000 nM. For Cc1nc(C)c(-c2ccnc(N[C@@H](C)c3cc4cc(Cl)ccc4[nH]c3=O)n2)s1 [Compound I-78], the IC50 was 1000 to 10000 nM. Cc1n[nH]c(C)c1-c1ccnc(N[C@@H](C)c2cc3cc(Cl)ccc3[nH]c2=O)n1 [Compound I-82] showed an IC50 of 1000 to 10000 nM. For Cc1nc(N[C@@H](C)c2cc3cc(Cl)ccc3[nH]c2=O)ncc1Br [Compound I-103], the IC50 was 100 to 1000 nM. C[C@H](Nc1nccc(S(C)(=O)=O)n1)c1cc2cc(Cl)ccc2[nH]c1=O [Compound I-105, (S)-6-Chloro-3-(1-((4-(methylsulfonyl)pyrimidin-2-yl)amino)ethyl)quinolin-2(1H)-one] showed an IC50 of 100 to 1000 nM. For CC(C)C[S@@+]([O-])c1ccnc(N[C@@H](C)c2cc3cc(Cl)ccc3[nH]c2=O)n1 [Compound I-106], the IC50 was 1000 to 10000 nM. CC(C)CSc1ccnc(N[C@@H](C)c2cc3cc(Cl)ccc3[nH]c2=O)n1 [Compound I-107] showed an IC50 of 1000 to 10000 nM. Work on CC(C)CS(=O)(=O)c1ccnc(N[C@@H](C)c2cc3cc(Cl)ccc3[nH]c2=O)n1 [Compound I-108] yielded an IC50 of 100 to 1000 nM. With CC(C)C[S@+]([O-])c1ccnc(N[C@@H](C)c2cc3cc(Cl)ccc3[nH]c2=O)n1 [Compound I-109] the IC50 was under 100 nM. With C[C@H](Nc1nccc(SCc2ccccc2)n1)c1cc2cc(Cl)ccc2[nH]c1=O [Compound I-110] the IC50 was 1000 to 10000 nM. In the case of CC(C)CC(c1ccnc(N[C@@H](C)c2cc3cc(Cl)ccc3[nH]c2=O)n1)S(C)(=O)=O (stereo partly drawn) [Compound I-118], the IC50 is reported as 100 to 1000 nM. C[C@H](Nc1nccc(CN2CCCS2(=O)=O)n1)c1cc2cc(Cl)ccc2[nH]c1=O [Compound I-119, (S)-6-chloro-3-(1-((4-((1,1-dioxidoisothiazolidin-2-yl)methyl)pyrimidin-2-yl)amino)ethyl) quinolin-2(1H)-one] was tested, and the IC50 was 100 to 1000 nM. Compound C[C@H](Nc1nccc(C2CCCS2(=O)=O)n1)c1cc2cc(Cl)ccc2[nH]c1=O (stereo partly drawn) [Compound I-120] has an IC50 of 100 to 1000 nM. Compound C[C@H](Nc1nccc(NC2CCOC2)n1)c1cc2cc(Cl)ccc2[nH]c1=O (stereo partly drawn) [Compound I-122, 6-Chloro-3-((1S)-1-((4-((tetrahydrofuran-3-yl)amino)pyrimidin-2-yl)amino)ethyl) quinolin-2(1H)-one] has an IC50 of 1000 to 10000 nM. Work on C[C@H](Nc1nccc(N(C)C(=O)N(C)C)n1)c1cc2cc(Cl)ccc2[nH]c1=O [Compound I-125, (S)-1-(2-((1-(6-chloro-2-oxo-1,2-dihydroquinolin-3-yl)ethyl)amino)pyrimidin-4-yl)-1,3,3-trimethylurea] yielded an IC50 of 1000 to 10000 nM. In the case of C[C@H](Nc1nccc(NC(=O)N(C)C)n1)c1cc2cc(Cl)ccc2[nH]c1=O [Compound I-126, (S)-3-(2-((1-(6-chloro-2-oxo-1,2-dihydroquinolin-3-yl)ethyl)amino)pyrimidin-4-yl)-1,1-dimethylurea], the IC50 is reported as over 10000 nM. In the case of C[C@H](Nc1nccc(Nc2ncco2)n1)c1cc2cc(Cl)ccc2[nH]c1=O [Compound I-127, (S)-6-Chloro-3-(1-((4-(oxazol-2-ylamino)pyrimidin-2-yl)amino)ethyl)quinolin-2(1H)-one], the IC50 is reported as 100 to 1000 nM. CC(C)CN(c1ccnc(N[C@@H](C)c2cc3cc(Cl)ccc3[nH]c2=O)n1)c1ncco1 [Compound I-128] gave an IC50 of 100 to 1000 nM. Work on C[C@H](Nc1nccc(CC(N)=O)n1)c1cc2cc(Cl)ccc2[nH]c1=O [Compound I-130, (S)-2-(2-((1-(6-chloro-2-oxo-1,2-dihydroquinolin-3-yl)ethyl)amino)pyrimidin-4-yl) acetamide] yielded an IC50 of 100 to 1000 nM. CNC(=O)Cc1ccnc(N[C@@H](C)c2cc3cc(Cl)ccc3[nH]c2=O)n1 [Compound I-131] showed an IC50 of 100 to 1000 nM. Compound C[C@H](Nc1nccc(CNS(C)(=O)=O)n1)c1cc2cc(Cl)ccc2[nH]c1=O [Compound I-132] has an IC50 of 1000 to 10000 nM. Compound COC(=O)C(c1ccnc(N[C@@H](C)c2cc3cc(Cl)ccc3[nH]c2=O)n1)S(C)(=O)=O (stereo partly drawn) [Compound I-134] has an IC50 of 1000 to 10000 nM.
